Biological target: T1, Mdm2/p53 binding (GST-Mdm2 / His-p53) (Homo sapiens, UniProt Q00987, L33E)
T1 construct: Mdm2 partial protein having Mdm2 amino acids at positions 25 to 108
Experiment: Mdm2/p53 binding assay (HTRF, His-p53 and GST-Mdm2)
Conditions: His-p53 (aa 1-132) and GST-Mdm2 (aa 25-108, L33E) 6.25 nM each; 25°C, 1 hour; values given as ranges
Protocol: A protein dilution containing 6.25 nM each of His-p53 (fusion protein of a p53 partial protein having p53 amino acids at positions 1 to 132, with a histidine protein) and GST-Mdm2 (fusion protein of an Mdm2 partial protein having Mdm2 amino acids at positions 25 to 108 with leucine residue 33 substituted by glutamic acid, with glutathione transferase) proteins was prepared using a protein buffer solution (20 mM HEPES pH 7.4, 150 mM NaCl, 0.1% BSA). This protein dilution was added in an amount of 8 μl/well to a 384-well plate (384-well low volume NBC, Corning Inc., catalog No: 3676).
Next, a test compound was diluted with DMSO to produce a protein buffer solution containing 10% dilution, and this buffer solution was added in an amount of 4 μl/well to the plate.
Subsequently, a solution containing an XL665-labeled anti-His antibody (HTRF monoclonal anti-6HIS antibody labeled with XL665 (catalog No: 61HISXLB), Schering/Cisbio Bioassays) and a europium (Eu)-labeled anti-GST antibody (HTRF monoclonal anti-GST antibody labeled with europium cryptate, Schering/Cisbio Bioassays, catalog No: 61GSTKLB) at concentrations of 2.5 μg/ml and 0.325 μg/ml, respectively, was prepared using an antibody diluting buffer solution (20 mM HEPES pH 7.4, 150 mM NaCl, 0.1% BSA, 0.5 M KF). These dilutions were added in an amount of 8 μl/well (total reaction solution volume: 20 μl/well). Then the plate was incubated at 25° ° C. for 1 hour.
Time-resolved fluorescence at 620 and 665 nm was measured at an excitation wavelength of 320 nm using a plate reader (ARVOsx, PerkinElmer Co., Ltd. or PHERAstar, BMG LABTECH). Ratio (R) was calculated using the measured values (RFU 620 nm and RFU 665 nm) according to the following formula: […]
BI: measured value at 665 nm of reaction solution (only each buffer solution) nonsupplemented with each protein, the compound, and the antibodies
A and D: each measured value at 665 nm and 620 nm of reaction solution supplemented with only Eu-labeled anti-GST antibody solution
The R value calculated from the well supplemented with His-p53, GST-Mdm2, the test compound, and each antibody was defined as R (sample). The R value calculated from the well supplemented with His-p53, GST-Mdm2, and each antibody but without the test compound was defined as R (control). The R value calculated from the well supplemented with GST-Mdm2 the test compound, and each antibody but without His-p53 was defined as R (background). T/C was calculated from the formula shown below. An IC50 value for Mdm2/p53 binding was calculated by sigmoid fitting.

T1 sequence (Q00987 25-108 L33E): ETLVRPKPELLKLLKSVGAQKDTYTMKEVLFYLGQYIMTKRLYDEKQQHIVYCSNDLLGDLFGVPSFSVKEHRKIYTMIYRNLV

## CC1(C)CCC2(CC1)N[C@@H](C(=O)N[C@@H]1CC[C@@H](c3ncon3)OC1)[C@H](c1cccc(Cl)c1F)[C@]21C(=O)Nc2nc(Cl)ccc21 [Example 62, (3′R, 4′S,5′R)-6″-chloro-4′-(3-chloro-2-fluorophenyl)-4,4-dimethyl-N-[(3R,6S)-6-(1,2,4-oxadiazol-3-yl)tetrahydro-2H-pyran-3-yl]-2″-oxo-1″,2″-dihydrodispiro[cyclohexane-1,2′-pyrrolidine-3′,3″-pyrrolo[2,3-b]pyridine]-5′-carboxamide]
  IC50: 50 to 100 nM

## CC1(C)CCC2(CC1)N[C@@H](C(=O)N[C@@H]1CC[C@@H](c3ncon3)OC1)[C@H](c1ccnc(Cl)c1)[C@]21C(=O)Nc2cc(Cl)ccc21 [Example 63, (3′R,4′R,5′R)-6″-chloro-4′-(2-chloropyridin-4-yl)-4,4-dimethyl-N-[(3R,6S)-6-(1,2,4-oxadiazol-3-yl)tetrahydro-2H-pyran-3-yl]-2″-oxo-1″,2″-dihydrodispiro[cyclohexane-1,2′-pyrrolidine-3′,3″-indole]-5′-carboxamide]
  IC50: 50 to 100 nM

## CC1(C)CCC2(CC1)N[C@@H](C(=O)N[C@@H]1CC[C@@H](c3ncon3)OC1)[C@H](c1ccnc(Cl)c1F)[C@]21C(=O)Nc2cc(Cl)ccc21 [Example 64, (3′R, 4′S,5′R)-6″-chloro-4′-(2-chloro-3-fluoropyridin-4-yl)-4,4-dimethyl-N-[(3R,6S)-6-(1,2,4-oxadiazol-3-yl)tetrahydro-2H-pyran-3-yl]-2″-oxo-1″,2″-dihydrodispiro[cyclohexane-1,2′-pyrrolidine-3′,3″-indole]-5′-carboxamide]
  IC50: 50 to 100 nM

## CC1(C)CCC2(CC1)N[C@@H](C(=O)N[C@@H]1CC[C@@H](c3n[nH]c(=O)o3)OC1)[C@H](c1ccnc(Cl)c1F)[C@]21C(=O)Nc2nc(Cl)ccc21 [Example 65, (3′R, 4′S,5′R)-6″-chloro-4′-(2-chloro-3-fluoropyridin-4-yl)-4,4-dimethyl-2″-oxo-N-[(3R,6S)-6-(5-oxo-4,5-dihydro-1,3,4-oxadiazol-2-yl)tetrahydro-2H-pyran-3-yl]-1″,2″-dihydrodispiro[cyclohexane-1,2′-pyrrolidine-3′,3″-pyrrolo[2,3-b]pyridine]-5′-carboxamide]
  IC50: 1 to 50 nM

## CC1(C)CCC2(CC1)N[C@@H](C(=O)N[C@@H]1CC[C@@H](c3ncon3)OC1)[C@H](c1ccnc(Cl)c1F)[C@]21C(=O)Nc2nc(Cl)ccc21 [Example 66, (3′R, 4′S,5′R)-6″-chloro-4′-(2-chloro-3-fluoropyridin-4-yl)-4,4-dimethyl-N-[(3R,6S)-6-(1,2,4-oxadiazol-3-yl)tetrahydro-2H-pyran-3-yl]-2″-oxo-1″,2″-dihydrodispiro[cyclohexane-1,2′-pyrrolidine-3′,3″-pyrrolo[2,3-b]pyridine]-5′-carboxamide]
  IC50: 50 to 100 nM

## CO[C@@H]1C[C@@H](NC(=O)[C@@H]2NC3(CCC(C)(C)CC3)[C@@]3(C(=O)Nc4nc(Cl)ccc43)[C@H]2c2cccc(Cl)c2F)CO[C@@H]1CO [Example 68, (3′R, 4′S,5′R)-6″-chloro-4′-(3-chloro-2-fluorophenyl)-N-[(3R,5R,6R)-6-(hydroxymethyl)-5-methoxytetrahydro-2H-pyran-3-yl]-4,4-dimethyl-2″-oxo-1″,2″-dihydrodispiro[cyclohexane-1,2′-pyrrolidine-3′,3″-pyrrolo[2,3-b]pyridine]-5′-carboxamide]
  IC50: 1 to 50 nM

## CC1(C)CCC2(CC1)N[C@@H](C(=O)N[C@@H]1CC[C@@H](C(N)=O)OC1)[C@H](c1ccnc(Cl)c1F)[C@]21C(=O)Nc2nc(Cl)ccc21 [Example 71, (3′R, 4′S, S′R)—N-[(3R,6S)-6-carbamoyltetrahydro-2H-pyran-3-yl]-6″-chloro-4′-(2-chloro-3-fluoropyridin-4-yl)-4,4-dimethyl-2″-oxo-1″,2″-dihydrodispiro[cyclohexane-1,2′-pyrrolidine-3′,3″-pyrrolo[2,3-b]pyridine]-5′-carboxamide]
  IC50: 1 to 50 nM

## CC1(C)CCC2(CC1)N[C@@H](C(=O)N[C@H]1CC[C@H](N3CC(O)C3)CC1)[C@H](c1ccnc(Cl)c1F)[C@]21C(=O)Nc2cc(Cl)ccc21 [Example 72, (3′R, 4′S,5′R)-6″-chloro-4′-(2-chloro-3-fluoropyridin-4-yl)-N-[trans-4-(3-hydroxyazetidine-1-yl)cyclohexyl]-4,4-dimethyl-2″-oxo-1″,2″-dihydrodispiro[cyclohexane-1,2′-pyrrolidine-3′,3″-indole]-5′-carboxamide]
  IC50: 1 to 50 nM

## CO[C@]1(CO)CC[C@H](NC(=O)[C@@H]2NC3(CCC(C)(C)CC3)[C@@]3(C(=O)Nc4cc(Cl)ccc43)[C@H]2c2cccc(Cl)c2F)CC1 [Example 73, (3′R, 4′S,5′R)-6″-chloro-4′-(3-chloro-2-fluorophenyl)-N-[cis-4-(hydroxymethyl)-4-methoxycyclohexyl]-4,4-dimethyl-2″-oxo-1″,2″-dihydrodispiro[cyclohexane-1,2′-pyrrolidine-3′,3″-indole]-5′-carboxamide]
  IC50: 50 to 100 nM

## CO[C@]1(CO)CC[C@@H](NC(=O)[C@@H]2NC3(CCC(C)(C)CC3)[C@@]3(C(=O)Nc4cc(Cl)ccc43)[C@H]2c2cccc(Cl)c2F)CC1 [Example 74, (3′R, 4′S,5′R)-6″-chloro-4′-(3-chloro-2-fluorophenyl)-N-[trans-4-(hydroxymethyl)-4-methoxycyclohexyl]-4,4-dimethyl-2″-oxo-1″,2″-dihydrodispiro[cyclohexane-1,2′-pyrrolidine-3′,3″-indole]-5′-carboxamide]
  IC50: 50 to 100 nM

## CC1(C)CC2(C1)N[C@@H](C(=O)N[C@@H]1CC[C@@H](CO)OC1)[C@H](c1cccc(Cl)c1F)[C@]21C(=O)Nc2nc(Cl)ccc21 [Example 79, (3′R, 4′S,5′R)-6″-chloro-4′-(3-chloro-2-fluorophenyl)-N-[(3R,6S)-6-(hydroxymethyl)tetrahydro-2H-pyran-3-yl]-3,3-dimethyl-2″-oxo-1″,2″-dihydrodispiro[cyclobutane-1,2′-pyrrolidine-3′,3″-pyrrolo[2,3-b]pyridine]-5′-carboxamide]
  IC50: 50 to 100 nM

## COC[C@]1(O)CC[C@@H](NC(=O)[C@@H]2NC3(CCC(C)(C)CC3)[C@@]3(C(=O)Nc4nc(Cl)ccc43)[C@H]2c2ccnc(Cl)c2F)CC1 [Example 80, (3′R, 4′S,5′R)-6″-chloro-4′-(2-chloro-3-fluoropyridin-4-yl)-N-[cis-4-hydroxy-4-(methoxymethyl)cyclohexyl]-4,4-dimethyl-2″-oxo-1″,2″-dihydrodispiro[cyclohexane-1,2′-pyrrolidine-3′,3″-pyrrol[2,3-b]pyridine]-5′-carboxamide]
  IC50: 50 to 100 nM

## CO[C@]1(CO)CC[C@@H](NC(=O)[C@@H]2NC3(CCC(C)(C)CC3)[C@@]3(C(=O)Nc4nc(Cl)ccc43)[C@H]2c2cccc(Cl)c2F)CC1 [Example 81, (3′R, 4′S,5′R)-6″-chloro-4′-(3-chloro-2-fluorophenyl)-N-[trans-4-(hydroxymethyl)-4-methoxycyclohexyl]-4,4-dimethyl-2″-oxo-1″,2″-dihydrodispiro[cyclohexane-1,2′-pyrrolidine-3′,3″-pyrrolo[2,3-b]pyridine]-5′-carboxamide]
  IC50: 1 to 50 nM

## CO[C@]1(CO)CC[C@@H](NC(=O)[C@@H]2NC3(CCC(C)(C)CC3)[C@@]3(C(=O)Nc4nc(Cl)ccc43)[C@H]2c2ccnc(Cl)c2F)CC1 [Example 82, (3′R, 4′S,5′R)-6″-chloro-4′-(2-chloro-3-fluoropyridin-4-yl)-N-[trans-4-(hydroxymethyl)-4-methoxycyclohexyl]-4,4-dimethyl-2″-oxo-1″,2′-dihydrodispiro[cyclohexane-1,2′-pyrrolidine-3′,3″-pyrrolo[2,3-b]pyridine]-5′-carboxamide]
  IC50: 1 to 50 nM

Source: US12545685B2 (Daiichi Sankyo Company, Limited, priority 2011, dated 2026)
